# Assay results taken from US20160177259A1, “[…]” (Evonik Degussa GmbH, priority 2014, published 2016).
# Tested on: Clostridium ljungdahlii
# Experiment: Autotrophic production of ethanol and acetate in carbonate buffer on synthesis gas with varying L-cysteine HCl (Example 1)
# Format: cell-based
# Method: For the production, anaerobic carbonate buffer (adjusted with KOH 1.4 g/L) was used. The only addition to the buffer was L-cysteine HCl at different concentrations.
# For identical autotrophic productions, 500 mL septum bottles were filled with 100 mL carbonate buffer and shaken at 150 min^−1 in an open shaking water bath shaker Innova 3100 by New Brunswick Scientific. The reactions were carried out at 37° C. with manual control of the pH. Once the pH dropped below 5.5, KOH was replenished from a stock solution of 140 g/L. In the present experiments the pH in both reactors were checked at the following points in time 50.3 h, 73.3 h and corrected by the addition of each 1.4 g/L KOH manually.
# The reactors were inoculated with a synthesis gas mixture of 67% H2 and 33% CO2 and pressure of 0.8 bar applied. To replenish the depleted gas, the gas above the reactors was replaced once a day and again the pressure brought to 0.8 bars.
# The reactor was started by seeding autotrophic grown cells at an OD of 0.2. The preculture was carried out continuously in a 1 L bottle with 500 mL complex medium. The complex medium consisting of 1 g/lNH4Cl, 0.1 g/l KCl, 0.2 g/l MgSO4 ×7 H2O, 0.8 g/l NaCl, 0.1 g/l KH2PO4, 20 mg/l CaCl2 ×2 H2O, 20 g/l MES, 1 g/l yeast extract, 0.4 g/L L-Cysteine-HC1, 20 mg/l nitrilotriacetic acid, 10 mg/l MnSO4×H2O, 8 mg/l (NH4)2Fe(SO4)2×6 H2O, 2 mg/l CoCl2×6 H2O, 2 mg/l ZnSO4 33 7 H2O, 0.2 mg/l CuCl 2 33 2 H2O, 0.2 mg/l Na2MoO4×2 H2O, 0.2 mg/l NiCl2×6 H2O, 0.2 mg/l Na2SeO4, 0.2 mg/l Na2WO4×2 H2O, 20 μg/l d-Biotin, 20 μg/l folic acid, 100 μg/l pyridoxine HCl, 50μg/l thiamine-HCl×H2O, 50 μg l of riboflavin, 50 μg/l nicotinic acid, 50 μg/l Ca-pantothenate, 1 μg/l vitamin B12, 50μg/l p-aminobenzoate, 50 μg/l lipoic acid. The culture was then gassed continuously with synthesis gas (67% H2, 33% CO2) at a flow rate of 3 l/h over a filter with pore size 10 microns. The cells were in late log phase growth at an OD of 0.37 and where anaerobically centrifuged (4500 rpm, 4300 g, 20° C., 10 min). The supernatant was discarded and the cell pellet resuspended in 10 ml carbonate buffer. The prepared cells were then used to inoculate the actual tests.
# When sampling each 5 ml sample was removed for determination of OD600, pH and the product spectrum. The determination of the product concentration was performed using quantitative 1H-NMR spectroscopy. As an internal quantification standard sodium trimethylsilylpropionate was used (T(M)SP).
# [1] = reactor 1, 0.1 g/L L-Cysteine-HCl, 150 min-1, 0.0 h
# [2] = reactor 1, 0.1 g/L L-Cysteine-HCl, 150 min-1, 24.5 h
# [3] = reactor 1, 0.1 g/L L-Cysteine-HCl, 150 min-1, 50.3 h
# [4] = reactor 1, 0.1 g/L L-Cysteine-HCl, 150 min-1, 73.3 h
# [5] = reactor 1, 0.1 g/L L-Cysteine-HCl, 150 min-1, 92.3 h
# [6] = reactor 2, 0.4 g/L L-Cysteine-HCl, 150 min-1, 0.0 h
# [7] = reactor 2, 0.4 g/L L-Cysteine-HCl, 150 min-1, 24.5 h
# [8] = reactor 2, 0.4 g/L L-Cysteine-HCl, 150 min-1, 50.3 h
# [9] = reactor 2, 0.4 g/L L-Cysteine-HCl, 150 min-1, 73.3 h
# [10] = reactor 2, 0.4 g/L L-Cysteine-HCl, 150 min-1, 92.3 h
smiles,measurement,setting,value
"Cl.N[C@@H](CS)C(=O)O [L-Cysteine-HCl, L-cysteine hydrochloride]",concentrations of ethanol and acetate,"0.1 g/L compared with 0.4 g/L L-cysteine-HCl, after 92.3 h",higher
same,Acetate (NMR),[1],13 mg/L
same,Ethanol (NMR),[1],6 mg/L
same,OD600,[1],0.25
same,Acetate (NMR),[2],1418 mg/L
same,Ethanol (NMR),[2],19 mg/L
same,OD600,[2],0.25
same,Δp,[2],0.6 bar
same,Acetate (NMR),[3],2556 mg/L
same,Ethanol (NMR),[3],130 mg/L
same,OD600,[3],0.30
same,Δp,[3],0.6 bar
same,OD600,[4],0.30
same,Δp,[4],0.6 bar
same,Acetate (NMR),[5],6960 mg/L
same,Ethanol (NMR),[5],321 mg/L
same,OD600,[5],0.26
same,Δp,[5],0.4 bar
same,total gas consumption,"reactor 1 with 0.1 g/L compared with reactor with 0.4 g/L L-cysteine-HCl, over 92.3 h",higher
same,Acetate (NMR),[6],15 mg/L
same,Ethanol (NMR),[6],8 mg/L
same,OD600,[6],0.24
same,Acetate (NMR),[7],2331 mg/L
same,Ethanol (NMR),[7],27 mg/L
same,OD600,[7],0.23
same,Δp,[7],0.6 bar
same,Acetate (NMR),[8],3197 mg/L
same,Ethanol (NMR),[8],128 mg/L
same,OD600,[8],0.26
same,Δp,[8],0.5 bar
same,OD600,[9],0.22
same,Δp,[9],0.3 bar
same,Acetate (NMR),[10],5067 mg/L
same,Ethanol (NMR),[10],150 mg/L
same,OD600,[10],0.22
same,Δp,[10],0.3 bar
